PubChem BioAssay (NCI)
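Exposure lasted 48 hours, with cells grown in 96-well plates and compounds tested at five concentrations. TGI: concentration producing complete growth inhibition.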

Tests used:
Assay in all cases: NCI-60 cell line screen, 48 h
IGROV1 ovarian = tested on: IGROV1 ovarian
SK-MEL-5 melanoma = tested on: SK-MEL-5 melanoma
SK-MEL-28 melanoma = tested on: SK-MEL-28 melanoma
COLO 205 colon = tested on: COLO 205 colon
A549 NSCLC = tested on: A549 NSCLC
UACC-257 melanoma = tested on: UACC-257 melanoma
KM12 colon = tested on: KM12 colon
MDA-N = tested on: MDA-N
SNB-78 CNS = tested on: SNB-78 CNS
DMS 114 small cell lung = tested on: DMS 114 small cell lung
M19-MEL melanoma = tested on: M19-MEL melanoma
DLD-1 colon = tested on: DLD-1 colon

SMILES	TGI (IGROV1 ovarian) [µM]	TGI (SK-MEL-5 melanoma) [µM]	TGI (SK-MEL-28 melanoma) [µM]	TGI (COLO 205 colon) [µM]	TGI (A549 NSCLC) [µM]	TGI (UACC-257 melanoma) [µM]	TGI (KM12 colon) [µM]	TGI (MDA-N) [µM]	TGI (SNB-78 CNS) [µM]	TGI (DMS 114 small cell lung) [µM]	TGI (M19-MEL melanoma) [µM]	TGI (DLD-1 colon) [µM]
CC1Cc2cc(O)ccc2C2[C@@H]1C1CC[C@H](O)[C@@]1(C)C[C@@H]2O[N+](=O)[O-] (some centres not stated)	> 100	17.8	81.8	50.6	79.7	72.3	> 79.1	6.07				
CC1OC(OC2CC(O)(C(=O)CO)Cc3c(O)c4c(c(O)c32)C(=O)c2ccccc2C4=O)CC(N)C1O (configuration not stated)	3.52	0.0523	0.368	0.139		0.326	4.59	0.613	0.898	0.0412	0.15	
Nc1ccc(N)c2c1C(=O)c1c(N)ccc(N)c1C2=O	> 100	> 100	> 100	> 100	> 100	> 100	> 100		> 100	> 100	> 100	> 100
N#CC(c1cc(Cl)ncn1)c1nc2ccccc2s1 (configuration not stated)	22	33.1	42.9	57.6	> 100	32.2	> 100	24.1				
CC[C@]12C=CCN3CCC4(c5cc([C@@]6(C(=O)OC)CC7CN(CCc8c6[nH]c6ccccc86)C[C@@H]6CCC[C@H]76)c(OC)cc5N(C)C4[C@](O)(C(=O)OC)C1OC(C)=O)C32 (some centres not stated)	7.31	0.181	> 10	0.375	> 10	> 10			> 2.85	1.01	> 10	> 10
CCNCCCCNCC	> 3750	> 3750	> 3750	> 3750	> 3750	> 3750	> 3750		> 3750	> 3750	> 3750	> 3750
S=C1SC(c2ccc(Cl)cc2)(c2ccc(Cl)cc2)c2ccccc21	> 100	> 100	> 100	> 100	> 100	> 100	> 100	> 100				
Cc1nc2c(ncn2CCO)c(=O)[nH]1	> 100	> 100	> 100	> 100	> 100	> 100	> 100	> 100				
CCOP(C)(=O)C(Nc1ccc(F)cc1)c1ccc(F)cc1 (configuration not stated)	> 100	> 100	> 100	> 100	> 100	> 100	> 100	> 100				
CC(=O)O[C@H]1[C@@H](N2CCN(C)CC2)C[C@H]2[C@@H]3CC=C4C[C@@H](N5CCCC5)CC[C@]4(C)[C@H]3CC[C@@]21C	> 100	73	96.9	> 100	> 100	49.4	> 100	> 100				
O=C1C[C@H]2[C@H](c3ccc(Br)cc3)[C@H]3C(=O)c4ccccc4NC(=O)[C@@H]3[C@@]2(O)c2ccccc2N1	33.4	62	> 100	40.2	> 100	54.1	43.8	55				
COC(=O)CCC(=O)c1ccc2c(c1)CC1(C2)Cc2ccc3c(c2C1)CCCC3=O (configuration not stated)	> 100	22.5	> 100	> 67.6	> 100	54.6	> 85	47.9				
O=C(CSc1nnc(-c2ccc(N=Cc3ccc(Cl)cc3)cc2)o1)Nc1cccc(Cl)c1		> 100	> 100	> 100	> 100	> 100	> 100		> 100	> 100	> 100	
O=C(O)c1cc(Sc2ccc([N+](=O)[O-])c(C(=O)O)c2)ccc1[N+](=O)[O-]	> 100	> 100	> 100	> 100	> 100	> 100	> 100	> 100				
N#Cc1c2nc3ccccc3nc2n2ccc3ccccc3c12	> 100	> 100	> 100	> 100	> 100	> 100	> 100		> 100	> 100	> 100	> 100
CC(=O)OC1COC(Nn2c(=O)[nH]c3ccccc3c2=O)C(OC(C)=O)C1OC(C)=O (configuration not stated)	> 100	> 100	> 100	> 100	> 100	> 100	> 100	> 100				
CCOP(=O)(OCC)/C(C#N)=C/c1c(C)[nH]c2ccccc12	> 100	> 100	> 100	> 100	> 100	> 100	> 100	> 100				
CCNc1ncnc2n[nH]nc12	> 100	> 100	> 100	> 100	> 100	> 100	> 100	> 100				
COC1(C)C=NCC(C)(C)NC(=O)C(C)(OC)C=NCC(C)(C)NC1=O (configuration not stated)	> 10	> 10	> 10	> 10	> 10	> 10	> 10	> 10				
COc1ccc(-c2nnc(CCCCCCCCc3nnc(-c4ccc(OC)cc4)o3)o2)cc1	> 100	> 100	> 100	> 100	> 100	> 100	> 100	> 100				
CC(C)(O)[C@H](CCO)O[Si](c1ccccc1)(c1ccccc1)C(C)(C)C	25.3	27.2	29	29.6	22.1	29.7	25.5		29.8		29.3	21
CC1(C)O[C@@H]2[C@@H]3OC(=O)C[C@@H]3[C@@H](COCc3ccccc3)[C@@H]2O1	> 100	> 100	> 100	> 100	> 100	> 100	> 100	> 100				
